# From the OligoGym collection
# After the bases stand the sugars from the 5' end (letter, count) and the backbone: PS all phosphorothioate, else s phosphorothioate and o phosphodiester by linkage. Methylation of C is not given here. e = 2'-O-(2-methoxyethyl) (MOE); k = constrained ethyl (cEt); d = 2'-deoxy (DNA); m = 2'-O-methyl
# Target: HSD17B13
# Settings: ASO, HepaRG
Sequence,target mRNA inhibition (1 µM),also measured
"AATTAAGATGTCCAGG (sugars k3 d10 k3, PS)",13%,
"GCCTUGAATAGCAAGC (sugars k3 d1 m1 d8 k3, PS)",12%,
"GATACATACCACTCTT (sugars k3 d10 k3, PS)",52%,
"GACTACGGACTGGCAA (sugars k3 d10 k3, PS)",60%,
"GACTTCAGAGTTATAC (sugars k3 d10 k3, PS)",16%,
"TAAGATACCCAGGTTG (sugars k3 d10 k3, PS)",39%,
"TACGACAGGTCATCTT (sugars k3 d10 k3, PS)",58%,
"GTTTCTTATGTAATAG (sugars k3 d1 m1 d8 k3, PS)",25%,
"TTGGAATGCTACTTGA (sugars kkdddddddddkekek, PS)",54%,
"TGACTAAGGAGCTAGA (sugars k3 d10 k3, PS)",31%,
"AAAGACTTTGAGACTC (sugars kkdddddddddkekek, PS)",45%,
"TAAATCCAAATCACTC (sugars k3 d10 k3, PS)",39%,
"TACATTCTTCAGGTGT (sugars k3 d10 k3, PS)",61%,
"TCATATCCAGTAGGTG (sugars k3 d10 k3, PS)",32%,
"AGACAGACCAAGTAGC (sugars k3 d10 k3, PS)",21%,
"CATAGGCTTAGTGTAG (sugars k3 d10 k3, PS)",38%,
"GTAACGGTGATCAAAT (sugars k3 d1 m1 d8 k3, PS)",21%,
"AGGATAGTCCATGCAA (sugars k3 d9 k3 e1, PS)",61%,
"CTTTGCAGCATTGATT (sugars k3 d10 k3, PS)",47%,
"GAAATTGATACACCAA (sugars k3 d9 k3 e1, PS)",64%,
"GGATTTCTAGGATGAT (sugars k3 d10 k3, PS)",58%,
"GTAGTCTGCCTGCCTA (sugars k3 d10 k3, PS)",68%,
"AAAGTCAGTATCCCCT (sugars k3 d10 k3, PS)",77%,target mRNA inhibition (0.02 µM): 7%; target mRNA inhibition (0.078 µM): 21%; target mRNA inhibition (0.313 µM): 40%; target mRNA inhibition (1.25 µM): 79%; target mRNA inhibition (5 µM): 82%
"CGCCTAGTTTTCGGCA (sugars k3 d10 k3, PS)",23%,
"ACTTACCAATATGGGA (sugars k3 d10 k3, PS)",0%,

Sequence,target mRNA inhibition (1 µM),also measured
"TCTCTTGACAATGGTT (sugars k3 d9 k3 e1, PS)",84%,target mRNA inhibition (0.02 µM): 0%; target mRNA inhibition (0.078 µM): 23%; target mRNA inhibition (0.313 µM): 47%; target mRNA inhibition (1.25 µM): 66%; target mRNA inhibition (5 µM): 79%
"TATAACATGGCTGGCA (sugars k3 d10 k3, PS)",33%,
"GTTAAGCAGATGGCTT (sugars k3 d10 k3, PS)",41%,
"TAGTCTTCAGCAAAGT (sugars k3 d9 k3 e1, PS)",36%,
"TGTAAGAGTCAGTATC (sugars k3 d9 k3 e1, PS)",46%,
"AAGTTATTATCCCCAC (sugars k3 d10 k3, PS)",60%,
"CCTAGTTGCAATGAGA (sugars k3 d10 k3, PS)",77%,
"TAGCTGTGCACTCATT (sugars k3 d10 k3, PS)",40%,
"TCATCCTTGGTGCTGA (sugars k3 d10 k3, PS)",12%,
"ACTTGAACAGTCTTAA (sugars k3 d10 k3, PS)",63%,
"TCCCCTCAAATAGCCT (sugars k3 d10 k3, PS)",60%,
"TGTCATAAAAATCGCT (sugars k3 d10 k3, PS)",57%,
"AGAATACGCTGAGAGT (sugars k3 d10 k3, PS)",56%,
"CACCAATGCAGTTTGT (sugars k3 d10 k3, PS)",42%,
"TACAGATTGGAATGCT (sugars kkdddddddddkekek, PS)",35%,
"AGCTTTGCAGCATTGA (sugars k3 d10 k3, PS)",62%,
"TTTGACTGCTGCTAGT (sugars k3 d10 k3, PS)",21%,
"GGCTACAGATTGGAAT (sugars kkdddddddddkekek, PS)",73%,target mRNA inhibition (0.02 µM): 16%; target mRNA inhibition (0.078 µM): 0%; target mRNA inhibition (0.313 µM): 27%; target mRNA inhibition (1.25 µM): 62%; target mRNA inhibition (5 µM): 83%
"ACCCTTAACAAACCTC (sugars k3 d10 k3, PS)",36%,
"GTCTAAACATCTCTGG (sugars k3 d1 m1 d8 k3, PS)",47%,
"GTTGATAAAATAGGGT (sugars k3 d10 k3, PS)",42%,
"CTTCATCCTTGGTGCT (sugars k3 d10 k3, PS)",30%,
"GGCTGTAAGAGTCAGT (sugars k3 d10 k3, PS)",88%,target mRNA inhibition (0.02 µM): 0%; target mRNA inhibition (0.078 µM): 0%; target mRNA inhibition (0.313 µM): 0%; target mRNA inhibition (1.25 µM): 51%; target mRNA inhibition (5 µM): 42%
"CTCTGGGACCAAGGAT (sugars k3 d1 m1 d8 k3, PS)",43%,
"GGGAAATTGTTGCTGT (sugars k3 d10 k3, PS)",42%,
